{
  "source": "paper PMC7290285",
  "about": "(Viruses, 2020)",
  "note": "Where a name gives a salt, the structure may show the parent alone.",
  "data": [
    {"tested_on": "lentiviral particles with AZT-resistant RT mutant (eGFP) in HEK293T-mCat1 cells", "experiment": "microbe, parasite or virus in culture", "format": "cell-based, HIV-1", "settings": "Human immunodeficiency virus 1, 48 h; read-out: Relative inhibition [%] of eGFP (mutant RT)", "units": {"inhibition at 1 µM": "%"}, "values": [
      {"compound": "Nc1ccn([C@H]2CC[C@@H](CO)O2)c(=O)n1", "note": "[2',3'-Dideoxycytidine]", "inhibition at 1 µM": 99},
      {"compound": "Nc1nc2c(ncn2COCCO)c(=O)[nH]1", "note": "[Acyclovir]", "inhibition at 1 µM": -33},
      {"compound": "NC12CC3CC(CC(C3)C1)C2", "note": "[Amantadine hydrochloride]", "inhibition at 1 µM": -29},
      {"compound": "CC(=O)OCC(CCn1cnc2cnc(N)nc21)COC(C)=O", "note": "[Famciclovir]", "inhibition at 1 µM": 100},
      {"compound": "Cc1c(O)cccc1C(=O)N[C@@H](CSc1ccccc1)[C@H](O)CN1C[C@H]2CCCC[C@H]2C[C@H]1C(=O)NC(C)(C)C", "note": "[Nelfinavir mesylate hydrate]", "inhibition at 1 µM": 49},
      {"compound": "NC(=O)c1ncn([C@@H]2O[C@H](CO)[C@@H](O)[C@H]2O)n1", "note": "[Ribavirin]", "inhibition at 1 µM": -73}
    ]},
    {"tested_on": "lentiviral particles with wild-type HIV-1 reverse transcriptase (mCherry) in HEK293T-mCat1 cells", "experiment": "microbe, parasite or virus in culture", "format": "cell-based", "settings": "Human immunodeficiency virus 1, 48 h; read-out: Relative inhibition [%] of mCherry (wild-type RT)", "units": {"inhibition at 1 µM": "%"}, "values": [
      {"compound": "Nc1ccn([C@H]2CC[C@@H](CO)O2)c(=O)n1", "note": "[2',3'-Dideoxycytidine]", "inhibition at 1 µM": 100},
      {"compound": "Nc1nc2c(ncn2COCCO)c(=O)[nH]1", "note": "[Acyclovir]", "inhibition at 1 µM": 41},
      {"compound": "NC12CC3CC(CC(C3)C1)C2", "note": "[Amantadine hydrochloride]", "inhibition at 1 µM": 6},
      {"compound": "CC(=O)OCC(CCn1cnc2cnc(N)nc21)COC(C)=O", "note": "[Famciclovir]", "inhibition at 1 µM": 100},
      {"compound": "Cc1c(O)cccc1C(=O)N[C@@H](CSc1ccccc1)[C@H](O)CN1C[C@H]2CCCC[C@H]2C[C@H]1C(=O)NC(C)(C)C", "note": "[Nelfinavir mesylate hydrate]", "inhibition at 1 µM": 90},
      {"compound": "NC(=O)c1ncn([C@@H]2O[C@H](CO)[C@@H](O)[C@H]2O)n1", "note": "[Ribavirin]", "inhibition at 1 µM": -21}
    ]},
    {"tested_on": "not listed separately", "experiment": "in vitro", "settings": "human", "units": {"viability at 1 µM": "%"}, "values": [
      {"compound": "Nc1ccn([C@H]2CC[C@@H](CO)O2)c(=O)n1", "note": "[2',3'-Dideoxycytidine]", "viability at 1 µM": 7},
      {"compound": "Nc1nc2c(ncn2COCCO)c(=O)[nH]1", "note": "[Acyclovir]", "viability at 1 µM": 88},
      {"compound": "NC12CC3CC(CC(C3)C1)C2", "note": "[Amantadine hydrochloride]", "viability at 1 µM": 67},
      {"compound": "CC(=O)OCC(CCn1cnc2cnc(N)nc21)COC(C)=O", "note": "[Famciclovir]", "viability at 1 µM": 7},
      {"compound": "Cc1c(O)cccc1C(=O)N[C@@H](CSc1ccccc1)[C@H](O)CN1C[C@H]2CCCC[C@H]2C[C@H]1C(=O)NC(C)(C)C", "note": "[Nelfinavir mesylate hydrate]", "viability at 1 µM": 26},
      {"compound": "NC(=O)c1ncn([C@@H]2O[C@H](CO)[C@@H](O)[C@H]2O)n1", "note": "[Ribavirin]", "viability at 1 µM": 81}
    ]},
    {"tested_on": "ecotropic pseudo-typed lentiviral particles (luciferase) in PM1-mCat1 cells", "experiment": "Luciferase-based viral integration assay using PM1-mCat1 cells", "settings": "Human immunodeficiency virus 1, read-out: IC50 (in µM), viral integration assay", "units": {"IC50": "µM"}, "values": [
      {"compound": "COc1ccc(NS(=O)(=O)c2cccc(C(=O)NCC(c3ccc(OC)cc3)N3CCCCC3)c2)cc1", "note": "(stereo not drawn) [T6213020, COC1=CC=C(NS(=O)(=O)C2=CC(=CC=C2)C(=O)NCC(N2CCCCC2)C2=CC=C(OC)C=C2)C=C1]", "IC50": 2.79},
      {"compound": "CN(C1CCCCCC1)S(=O)(=O)c1cccc(C#N)c1", "note": "[T6302141, CN(C1CCCCCC1)S(=O)(=O)C1=CC(=CC=C1)C#N]", "IC50": 2.24},
      {"compound": "Cc1cc(Cl)c(C)c(S(=O)(=O)NCCCN2CCCC2=O)c1Cl", "note": "[T6312190, CC1=C(Cl)C(=C(C)C(Cl)=C1)S(=O)(=O)NCCCN1CCCC1=O]", "IC50": 2.02},
      {"compound": "c1ccc(CCNc2nc(CN3CCOCC3)nc3scc(-c4cccs4)c23)nc1", "note": "[T6312425, C(CC1=NC=CC=C1)NC1=C2C(SC=C2C2=CC=CS2)=NC(CN2CCOCC2)=N1]", "IC50": "> 10"},
      {"compound": "COc1ccccc1N1CCN(C(=O)c2cc(Cl)ccc2O)CC1", "note": "[T6328287, COC1=C(C=CC=C1)N1CCN(CC1)C(=O)C1=C(O)C=CC(Cl)=C1]", "IC50": 3.89},
      {"compound": "Cc1oc(-c2ccccc2)nc1CN1CC(C(=O)N2CCCCC2)Oc2ccccc21", "note": "(stereo not drawn) [T6329376, CC1=C(CN2CC(OC3=C2C=CC=C3)C(=O)N2CCCCC2)N=C(O1)C1=CC=CC=C1]", "IC50": 4.83},
      {"compound": "Cc1cnc2c(S(=O)(=O)N3CCN(Cc4ccc5c(c4)OCCO5)CC3)cccc2c1", "note": "[T6332191, CC1=CC2=C(N=C1)C(=CC=C2)S(=O)(=O)N1CCN(CC2=CC3=C(OCCO3)C=C2)CC1]", "IC50": 1.42},
      {"compound": "O=C(Cc1csc(-c2ccccn2)n1)N=c1sccn1Cc1ccccc1", "note": "[T6357587, O=C(CC1=CSC(=N1)C1=NC=CC=C1)N=C1SC=CN1CC1=CC=CC=C1]", "IC50": 8.3},
      {"compound": "O=S(=O)(c1ccc(CSc2ncnc3scc(-c4ccc(F)cc4)c23)o1)N1CCCC1", "note": "[T6366633, FC1=CC=C(C=C1)C1=CSC2=C1C(SCC1=CC=C(O1)S(=O)(=O)N1CCCC1)=NC=N2]", "IC50": 1.67},
      {"compound": "O=C(Nc1ccccc1N1CCCC1)c1cc(S(=O)(=O)N2CCOCC2)ccc1F", "note": "[T6382120, FC1=C(C=C(C=C1)S(=O)(=O)N1CCOCC1)C(=O)NC1=C(C=CC=C1)N1CCCC1]", "IC50": 2.86},
      {"compound": "O=C(Nc1ccccc1-n1cccn1)c1ccccc1Br", "note": "[T6468172, BrC1=C(C=CC=C1)C(=O)NC1=C(C=CC=C1)N1C=CC=N1]", "IC50": 1.04},
      {"compound": "C=CCNC(=O)CN1CCN(c2nc3ccccc3s2)CC1", "note": "[T6471356, C=CCNC(=O)CN1CCN(CC1)C1=NC2=C(S1)C=CC=C2]", "IC50": 2.37},
      {"compound": "COc1ccc(C2CCCN2C(=O)C2CC(=O)N(c3ccccc3F)C2)c(OC)c1", "note": "(stereo not drawn) [T6496714, COC1=CC(OC)=C(C=C1)C1CCCN1C(=O)C1CN(C(=O)C1)C1=C(F)C=CC=C1]", "IC50": 2.44},
      {"compound": "COc1ccc(OC)c(C2CCCN2C(=O)C2CC(=O)N(c3ccccc3)C2)c1", "note": "(stereo not drawn) [T6517641, COC1=CC(C2CCCN2C(=O)C2CN(C(=O)C2)C2=CC=CC=C2)=C(OC)C=C1]", "IC50": 6.83},
      {"compound": "c1coc(-c2noc(CNc3ccccc3-n3cccn3)n2)c1", "note": "[T6671011, C(NC1=C(C=CC=C1)N1C=CC=N1)C1=NC(=NO1)C1=CC=CO1]", "IC50": 4}
    ]}
  ]
}
